Assay results reported in ChEMBL document CHEMBL1201862, “PubChem BioAssay data set” (2004).
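The compound was tested at five concentrations on cells cultured in 96-well plates, with a 48-hour exposure period. GI50 marks 50% less growth.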 Active and inactive are the calls of the source. No stated cut-off is given here; in the data, active = GI50 up to about 1.1 µM and inactive = higher.

Tests used:
Assay in all cases: NCI-60 cell line screen, 48 h
HL-60 = test system: HL-60
SF-539 = test system: SF-539
OVCAR-4 = test system: OVCAR-4
NCI/ADR-RES = test system: NCI/ADR-RES
CAKI-1 = test system: CAKI-1
OVCAR-5 = test system: OVCAR-5
T47D = test system: T47D
CCRF-CEM = test system: CCRF-CEM
EKVX = test system: EKVX
OVCAR-3 = test system: OVCAR-3
UO-31 = test system: UO-31
SK-MEL-2 = test system: SK-MEL-2
Hs-578T = test system: Hs-578T
SF-268 = test system: SF-268
HT-29 = test system: HT-29
A549 = test system: A549
IGROV-1 = test system: IGROV-1
HOP-62 = test system: HOP-62
UACC-62 = test system: UACC-62
HCT-15 = test system: HCT-15
DU-145 = test system: DU-145
MOLT-4 = test system: MOLT-4
NCI-H522 = test system: NCI-H522
NCI-H23 = test system: NCI-H23
OVCAR-8 = test system: OVCAR-8
MDA-N = test system: MDA-N
LOX IMVI = test system: LOX IMVI
KM12 = test system: KM12
NCI-H460 = test system: NCI-H460
Malme-3M = test system: Malme-3M
RPMI-8226 = test system: RPMI-8226
RXF 393 = test system: RXF 393
MCF7 = test system: MCF7
TK-10 = test system: TK-10
UACC-257 = test system: UACC-257
HCC 2998 = test system: HCC 2998
SF-295 = test system: SF-295
HCT-116 = test system: HCT-116
HOP-92 = test system: HOP-92
BT-549 = test system: BT-549
A498 = test system: A498
M14 = test system: M14
SN12C = test system: SN12C
786-0 = test system: 786-0
SNB-19 = test system: SNB-19
PC-3 = test system: PC-3
MDA-MB-435 = test system: MDA-MB-435
SK-OV-3 = test system: SK-OV-3
SR = test system: SR
SK-MEL-5 = test system: SK-MEL-5
SW-620 = test system: SW-620
SK-MEL-28 = test system: SK-MEL-28
SNB-75 = test system: SNB-75
COLO 205 = test system: COLO 205
MDA-MB-231 = test system: MDA-MB-231
ACHN = test system: ACHN
NCI-H226 = test system: NCI-H226
U-251 = test system: U-251
K562 = test system: K562

Measured: GI50

COc1cc(/C=C/C(=N\NS(=O)(=O)c2ccc(C)cc2)c2sc(NNC(C)=O)nc2C)ccc1O
inactive: HL-60 > 100 µM | SF-539 > 100 µM | OVCAR-4 > 100 µM | NCI/ADR-RES > 100 µM | CAKI-1 > 100 µM | OVCAR-5 > 100 µM | T47D > 100 µM | CCRF-CEM > 100 µM | EKVX > 100 µM | OVCAR-3 > 100 µM | UO-31 > 100 µM | SK-MEL-2 > 100 µM | Hs-578T > 100 µM | SF-268 > 100 µM | HT-29 > 100 µM | A549 > 100 µM | IGROV-1 > 100 µM | HOP-62 > 100 µM | UACC-62 > 100 µM | DU-145 > 100 µM | MOLT-4 > 100 µM | NCI-H522 > 100 µM | NCI-H23 > 100 µM | OVCAR-8 > 100 µM | MDA-N > 100 µM | LOX IMVI > 100 µM | KM12 > 100 µM | NCI-H460 > 100 µM | Malme-3M > 100 µM | RPMI-8226 > 100 µM | RXF 393 > 100 µM | MCF7 > 100 µM | TK-10 > 100 µM | UACC-257 > 100 µM | HCC 2998 > 100 µM | SF-295 > 100 µM | HCT-116 > 100 µM | HOP-92 > 100 µM | BT-549 > 100 µM | A498 > 100 µM | M14 > 100 µM | SN12C > 100 µM | 786-0 > 100 µM | SNB-19 > 100 µM | PC-3 > 100 µM | MDA-MB-435 > 100 µM | SK-OV-3 > 100 µM | SR > 100 µM | SK-MEL-5 > 100 µM | SW-620 > 100 µM | SK-MEL-28 > 100 µM | SNB-75 > 100 µM | COLO 205 > 100 µM | MDA-MB-231 69.2 µM | ACHN > 100 µM | NCI-H226 > 100 µM | U-251 > 100 µM
> 100 µM: HCT-15

O=C(CC(=O)Nc1ccccc1)NNC(c1cc(/N=N/c2ccc(Br)cc2)ccc1O)P(O)O (stereo unspecified)
active: HL-60 0.291 µM | NCI/ADR-RES 1.06 µM | CCRF-CEM 0.322 µM | OVCAR-3 0.333 µM | SF-268 0.964 µM | MOLT-4 0.321 µM | OVCAR-8 0.759 µM | NCI-H460 0.447 µM | MCF7 1.03 µM | TK-10 0.851 µM | HCT-116 0.504 µM | M14 0.631 µM | 786-0 0.489 µM | PC-3 0.975 µM | SR 0.494 µM
inactive: SF-539 2.12 µM | OVCAR-4 1.85 µM | CAKI-1 3.02 µM | OVCAR-5 6.92 µM | T47D 3.31 µM | UO-31 2.52 µM | SK-MEL-2 > 10 µM | Hs-578T > 10 µM | HT-29 > 10 µM | A549 6.41 µM | IGROV-1 9.62 µM | HOP-62 6.79 µM | UACC-62 1.34 µM | DU-145 3.48 µM | NCI-H522 3.48 µM | NCI-H23 3.28 µM | MDA-N 3.83 µM | LOX IMVI 1.71 µM | KM12 1.81 µM | Malme-3M 2.38 µM | RPMI-8226 1.86 µM | RXF 393 > 10 µM | UACC-257 4.89 µM | HCC 2998 5.46 µM | SF-295 3.64 µM | HOP-92 4.18 µM | BT-549 4 µM | A498 2.43 µM | SN12C 4.04 µM | SNB-19 > 10 µM | MDA-MB-435 1.77 µM | SK-OV-3 5.48 µM | SK-MEL-5 1.53 µM | SW-620 1.55 µM | SK-MEL-28 4.45 µM | SNB-75 2.32 µM | COLO 205 4.49 µM | K562 2.06 µM | MDA-MB-231 2.73 µM | ACHN 2.12 µM | NCI-H226 1.57 µM | U-251 3.51 µM
0.425 µM: HCT-15
